# What was measured:
# [1] = target: CFTR (Homo sapiens, UniProt P13569); test: Membrane Potential Dye, Enteroid Assay A; format: cell-based; conditions: for EC50: read-out: Ent. A EC50
# Method: Base medium (ADF+++) consisted of Advanced DMEM/Ham's F12, 2 mM Glutamax, 10 mM HEPES, 1 µg/mL penicillin/streptomycin.
# Intestinal enteroid maintenance medium (IEMM) consisted of ADF+++, 1× B27 supplement, 1× N2 supplement, 1.25 mM N-acetyl cysteine, 10 mM Nicotinamide, 50 ng/mL hEGF, 10 nM Gastrin, 1 pg/mL hR-spondin-1, 100 ng/mL hNoggin, TGF-b type 1 inhibitor A-83-01, 100 μg/mL Primocin, […] P38 MAPK inhibitor SB202190.
# Bath 1 Buffer consisted of 1 mM MgCl2, 160 mM NaCl, 4.5 mM KCl, 10 mM HEPES, 10 mM Glucose, 2 mM CaCl2).
# Chloride Free Buffer consisted of 1 mM Magnesium Gluconate, 2 mM Calcium Gluconate, 4.5 mM Potassium Gluconate, 160 mM Sodium Gluconate, 10 mM HEPES, 10 mM Glucose.
# Bath1 Dye Solution consisted of Bath 1 Buffer, 0.04% Pluronic F127, […] Methyl Oxonol, 30 μM CaCCinh-A01, 30 μM Chicago Sky Blue.
# Chloride Free Dye Solution consisted of Chloride Free Buffer, 0.04% Pluronic F127, 20 μM Methyl Oxonol, 30 μM CaCCinh-A01, 30 μM Chicago Sky Blue.
# Chloride Free Dye Stimulation Solution consisted of Chloride Free Dye Solution, 10 μM forskolin, 100 μM IBMX, and 300 nM Compound III.
# Human intestinal epithelial enteroid cells were obtained from the Hubrecht Institute for Developmental Biology and Stem Cell Research, Utrecht, The Netherlands and expanded in T-Flasks as previously described (Dekkers J F, Wiegerinck C L, de Jonge H R, Bronsveld I, Janssens H M, de Winter-de Groot K M, Brandsma A M, de Jong N W M, Bijvelds M J C, Scholte B J, Nieuwenhuis E E S, van den Brink S, Clevers H, van der Ent C K, Middendorp S and M Beekman J M. A functional CFTR assay using primary cystic fibrosis intestinal organoids. Nat Med. 2013 July; 19(7):939-45.).
# Cells were recovered in cell recovery solution, collected by centrifugation at 650 rpm for 5 min at 4° C., resuspended in TryPLE and incubated for 5 min at 37° C. Cells were then collected by centrifugation at 650 rpm for 5 min at 4° C. and resuspended in IEMM containing 10 μM ROCK inhibitor (RI). The cell suspension was passed through a 40 μm cell strainer and resuspended at 1×10^6 cells/mL in IEMM containing 10 μM RI. Cells were seeded at 5000 cells/well into multi-well plates and incubated for overnight at 37° C., 95% humidity and 5% CO2 prior to assay.
# Enteroid cells were incubated with test compound in IEMM for 18-24 hours at 37° C., 95% humidity and 5% CO2. […] Briefly, cells were washed 5 times in Bath 1 Buffer. Bath 1 Dye Solution was added, and the cells were incubated for 25 min at room temperature. Following dye incubation, cells were washed 3 times in Chloride Free Dye Solution. Chloride transport was initiated by addition of Chloride Free Dye Stimulation Solution and the fluorescence signal was read for 15 min. […] Chloride transport was then expressed as a percentage of the chloride transport following treatment with 3 μM (S)—N-((6-aminopyridin-2-yl)sulfonyl)-6-(3-fluoro-5-isobutoxyphenyl)-2-(2,2,4-trimethylpyrrolidin-1-yl)nicotinamide, 3 μM (R)-1-(2,2-difluorobenzo[d][1,3]dioxol-5-yl)-N-(1-(2,3-dihydroxypropyl)-6-fluoro-2-(1-hydroxy-2-methylpropan-2-yl)-1H-indol-5-yl)cyclopropanecarboxamide and 300 nM acute N-[2,4-bis(1,1-dimethylethyl)-5-hydroxyphenyl]-1,4-dihydro-4-oxoquinoline-3-carboxamide triple combination control (% Activity).
# [2] = target: T1, CFTR (Homo sapiens, UniProt P13569, DEL508-508); test: HBE Assay: Ussing chamber assay of CFTR-mediated short-circuit currents in F508del/MF-HBE cells with 1 μM Ivacaftor; format: cell-based; conditions: 20% human serum; for EC50 / HBE Max Activity / HBE Activity at 10 μM: with 1 μM Ivacaftor; for HBE Activity at 10 μM: single fixed concentration of 10 μM
# T1 construct: endogenous in cells; host or cells: primary human bronchial epithelial cells, F508del/MF genotype
# Method in brief: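 F508del/MF-HBE cells at air-liquid interface >14 days were incubated 18-24 h at 37° C with corrector (concentration range or fixed 10 μM) plus 1 μM Ivacaftor in 20% human serum, compounds kept throughout. Ussing chamber, Vhold=0 mV, 37° C, apical amiloride 30 μM; ISC (μA/cm^2) from peak 20 μM forskolin response to steady state after CFTR inhibitor cocktail.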
# Sequence of CFTR (Homo sapiens, UniProt P13569) (P13569 with tags, fused parts or gaps DEL508-508): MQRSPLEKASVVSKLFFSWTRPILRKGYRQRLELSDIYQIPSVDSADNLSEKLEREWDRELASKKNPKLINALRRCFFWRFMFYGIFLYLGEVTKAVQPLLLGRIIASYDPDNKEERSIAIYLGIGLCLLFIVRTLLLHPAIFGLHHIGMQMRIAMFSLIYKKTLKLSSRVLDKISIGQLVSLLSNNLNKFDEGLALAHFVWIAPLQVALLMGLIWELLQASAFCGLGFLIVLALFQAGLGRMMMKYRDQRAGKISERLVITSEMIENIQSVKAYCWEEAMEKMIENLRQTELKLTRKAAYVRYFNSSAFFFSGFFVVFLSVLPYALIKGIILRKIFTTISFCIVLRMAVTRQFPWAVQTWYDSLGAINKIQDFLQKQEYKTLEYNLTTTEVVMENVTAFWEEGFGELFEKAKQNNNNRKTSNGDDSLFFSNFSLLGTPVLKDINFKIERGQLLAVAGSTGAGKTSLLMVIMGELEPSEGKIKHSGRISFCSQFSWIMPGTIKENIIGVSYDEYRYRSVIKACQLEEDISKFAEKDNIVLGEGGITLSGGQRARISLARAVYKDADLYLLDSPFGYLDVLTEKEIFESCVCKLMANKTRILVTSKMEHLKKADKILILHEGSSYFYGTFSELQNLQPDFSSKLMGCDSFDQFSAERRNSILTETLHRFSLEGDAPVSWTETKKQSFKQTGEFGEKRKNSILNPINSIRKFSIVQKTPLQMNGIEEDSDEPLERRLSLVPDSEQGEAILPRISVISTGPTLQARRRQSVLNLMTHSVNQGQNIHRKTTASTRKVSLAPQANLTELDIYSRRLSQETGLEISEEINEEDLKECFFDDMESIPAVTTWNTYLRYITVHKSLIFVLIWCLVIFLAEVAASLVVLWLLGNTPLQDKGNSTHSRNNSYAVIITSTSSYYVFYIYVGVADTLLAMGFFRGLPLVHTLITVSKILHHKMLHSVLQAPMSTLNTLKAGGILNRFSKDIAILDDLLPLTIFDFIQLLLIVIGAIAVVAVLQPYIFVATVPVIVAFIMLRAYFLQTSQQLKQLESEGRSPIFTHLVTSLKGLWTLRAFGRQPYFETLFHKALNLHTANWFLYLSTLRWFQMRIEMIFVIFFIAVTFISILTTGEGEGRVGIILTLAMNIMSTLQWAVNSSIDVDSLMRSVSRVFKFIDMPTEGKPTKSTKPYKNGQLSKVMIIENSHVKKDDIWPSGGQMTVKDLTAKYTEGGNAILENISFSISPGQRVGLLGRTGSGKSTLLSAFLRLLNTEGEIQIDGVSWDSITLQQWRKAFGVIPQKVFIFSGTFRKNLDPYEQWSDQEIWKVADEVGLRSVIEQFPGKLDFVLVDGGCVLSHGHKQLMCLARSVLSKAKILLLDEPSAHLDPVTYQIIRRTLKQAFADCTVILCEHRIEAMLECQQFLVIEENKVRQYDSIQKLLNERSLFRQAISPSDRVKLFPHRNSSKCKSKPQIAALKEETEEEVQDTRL
# T1 sequence (P13569 with tags, fused parts or gaps DEL508-508): as above
Ent. A Max Activity [1],EC50 [1] [µM],Compound,also measured
+++ (+++ is >60%),< 1,Cc1ccccc1-c1nc2nc(c1C(F)(F)F)OC1CN(Cc3ccccc31)C(=O)c1cccc(c1)S(=O)(=O)N2 (stereo not shown) [Compound 43],
++ (++ is 30-60%),1 to 3,"CCc1c2nc(nc1-c1c(C)cccc1OC)NS(=O)(=O)c1cccc(c1)NC(=O)c1cccc(c1)O2 [Compound 6, 4-Ethyl-5-(2-methoxy-6-methylphenyl)-2-oxa-9λ^6-thia-6,8,15,23-tetraazatetracyclo[15.3.1.13,7.110,14]tricosa-1(21),3,5,7(23),10(22),11,13,17,19-nonaene-9,9,16-trione]",
+ (+ is <30%),,CC(C)(C)c1c2nc(nc1-c1ccccc1)NS(=O)(=O)c1cccc(c1)C(=O)N1Cc3ccccc3C(C1)O2 (stereo not shown) [Compound 46],
+ (+ is <30%),,"CCc1c2nc(nc1-c1cccnc1C)NS(=O)(=O)c1cccc(c1)NC(=O)c1cccc(c1)O2 [Compound 7, 4-Ethyl-5-(2-methylpyridin-3-yl)-2-oxa-9λ^6-thia-6,8,15,23-tetraazatetracyclo[15.3.1.13,7.110,14]tricosa-1(21),3,5,7(23),10(22),11,13,17,19-nonaene-9,9,16-trione]",
+++ (+++ is >60%),< 1,CC(C)CCc1ccccc1-c1nc2nc(c1C(F)(F)F)OC1CN(Cc3ccccc31)C(=O)c1cccc(c1)S(=O)(=O)N2 (stereo not shown) [Compound 41],
+ (+ is <30%),< 1,CC(C)Oc1cccc(-c2nc3nc(c2C(F)(F)F)OC2CN(Cc4ccccc42)C(=O)c2cccc(c2)S(=O)(=O)N3)c1 (stereo not shown) [Compound 42],
++ (++ is 30-60%),< 1,"Cc1ccccc1-c1nc2nc(c1C(C)(C)C)OC1CN(Cc3ccccc31)C(=O)c1cccc(c1)S(=O)(=O)N2 (stereo not shown) [Compound 39, 13-tert-Butyl-12-(o-tolyl)-8,8-dioxo-15-oxa-8λ^6-thia-1,9,11,25-tetrazapentacyclo[14.7.1.13,7.110,14.017,22]hexacosa-3,5,7(26),10(25),11,13,17(22),18,20-nonaen-2-one]",
++ (++ is 30-60%),< 1,CCc1c2nc(nc1-c1c(C)ccc(OCCC(C)C)c1C)NS(=O)(=O)c1cccc(c1)NC(=O)c1cccc(c1)O2 [Compound 9],
+ (+ is <30%),,CCc1c2nc(nc1-c1ccccc1)NS(=O)(=O)c1cccc(c1)NC(=O)c1cccc(c1)O2 [Compound 30],
+ (+ is <30%),,CCc1c2nc(nc1-c1ccncc1C)NS(=O)(=O)c1cccc(c1)NC(=O)c1cccc(c1)O2 [Compound 22],
+ (+ is <30%),< 1,CCc1c2nc(nc1-c1cccc(OCC(C)C)c1)NS(=O)(=O)c1cccc(c1)NC(=O)c1cccc(c1)O2 [Compound 27],
+ (+ is <30%),1 to 3,CCOc1ccccc1-c1nc2nc(c1CC)Oc1cccc(c1)C(=O)Nc1cccc(c1)S(=O)(=O)N2 [Compound 24],
+ (+ is <30%),,"Cc1ncccc1-c1nc2nc(c1C(F)(F)F)OC1CN(Cc3ccccc31)C(=O)c1cccc(c1)S(=O)(=O)N2 (stereo not shown) [Compound 40, 12-(2-Methyl-3-pyridyl)-8,8-dioxo-13-(trifluoromethyl)-15-oxa-8λ^6-thia-1,9,11,25-tetrazapentacyclo[14.7.1.13,7.110,14.017,22]hexacosa-3,5,7(26),10(25),11,13,17(22),18,20-nonaen-2-one]",
+ (+ is <30%),,CC(C)Oc1cccc(-c2nc3nc(c2C(C)(C)C)OC2CN(Cc4ccccc42)C(=O)c2cccc(c2)S(=O)(=O)N3)c1 (stereo not shown) [Compound 44],
++ (++ is 30-60%),3 to 30,CCc1c2nc(nc1-c1ccccc1OC)NS(=O)(=O)c1cccc(c1)NC(=O)c1cccc(c1)O2 [Compound 23],
+ (+ is <30%),,CCc1c2nc(nc1-c1cccnc1OC)NS(=O)(=O)c1cccc(c1)NC(=O)c1cccc(c1)O2 [Compound 20],
+ (+ is <30%),,Cc1ncccc1-c1nc2nc(c1C(C)(C)C)OC1CN(Cc3ccccc31)C(=O)c1cccc(c1)S(=O)(=O)N2 (stereo not shown) [Compound 45],
,,"Cc1cccc(CC(C)C)c1-c1nc2nc(c1C)OC[C@@H](CC(C)(C)C)N(Cc1cncc(N(C)C(C)C)n1)C(=O)c1cccc(c1)S(=O)(=O)N2 (atropisomer, axis not shown) [Compound 238]",EC50 ([2]; 18-24 hours): < 1 µM; HBE Max Activity ([2]; 18-24 hours): +++ (+++ is >600%)
,,"Cc1cccc(CC2CCOCC2)c1-c1nc2nc(c1C)OC[C@@H](CC(C)(C)C)N(Cc1ncc(N3CCC(C)(C)C3)cn1)C(=O)c1cccc(c1)S(=O)(=O)N2 (atropisomer, axis not shown) [Compound 272]",HBE Activity at 10 μM [2]: ++ (++ is 30-60%)
,,"Cc1cccc(CC(C)(C)C)c1-c1nc2nc(c1C)OC[C@@H](CC(C)(C)C)N(Cc1ncc(OC3CCC3)cn1)C(=O)c1cccc(c1)S(=O)(=O)N2 (atropisomer, axis not shown) [Compound 353]","HBE Activity at 10 μM (%) ([2]; single fixed concentration of 10 μM with 1 μM Ivacaftor, 18-24 hours): +++ (+++ is >60%)"
,,"Cc1cccc(CC(C)C)c1-c1nc2nc(c1C)OC[C@@H](CC(C)(C)C)N(Cc1cccc(N(C)C(C)C)n1)C(=O)c1cccc(c1)S(=O)(=O)N2 (atropisomer, axis not shown) [Compound 235]",EC50 ([2]; 18-24 hours): < 1 µM; HBE Max Activity ([2]; 18-24 hours): +++ (+++ is >600%)
,,"Cc1cccc(COC(C)C)c1-c1nc2nc(c1C)OC[C@@H](CC(C)(C)C)N(Cc1nccc(N(C)C(C)C)n1)C(=O)c1cccc(c1)S(=O)(=O)N2 (atropisomer, axis not shown) [Compound 230]",HBE Activity at 10 μM [2]: +++ (+++ is >600%)
,,Cc1cccc(C)c1-c1nc2nc(c1C)OC[C@@H](C(C)C)N(Cc1ncc(OC(C)C)cn1)C(=O)c1cccc(c1)S(=O)(=O)N2 [Compound 197],HBE Activity at 10 μM [2]: +++ (+++ is >600%)
,,"Cc1cccc(CC(C)C)c1-c1nc2nc(c1C)OC[C@@H](CC(C)(C)C)NC(=O)c1cccc(c1)S(=O)(=O)N2 (atropisomer, axis not shown) [Compound 227]",HBE Activity at 10 μM [2]: +++ (+++ is >600%)
,,"Cc1cccc(CC2CCCCC2)c1-c1nc2nc(c1C)OC[C@@H](CC(C)(C)C)NC(=O)c1cccc(c1)S(=O)(=O)N2 (atropisomer, axis not shown) [Compound 312]",EC50 ([2]; 18-24 hours): < 1 µM; HBE Max Activity ([2]; 18-24 hours): ++ (++ is 30-60%)
,,"Cc1cccc(CC(C)C)c1-c1nc2nc(c1C)OC[C@@H](CC(C)(C)C)N(Cc1ncc(N(C)C)cn1)C(=O)c1cccc(c1)S(=O)(=O)N2 (atropisomer, axis not shown) [Compound 236]",EC50 ([2]; 18-24 hours): < 1 µM; HBE Max Activity ([2]; 18-24 hours): +++ (+++ is >600%)
,,"Cc1cccc(CC2CCCCC2)c1-c1nc2nc(c1C)OC[C@@H](CC(C)(C)C)N(Cc1ncccc1N1CCOCC1)C(=O)c1cccc(c1)S(=O)(=O)N2 (atropisomer, axis not shown) [Compound 309]",EC50 ([2]; 18-24 hours): < 1 µM; HBE Max Activity ([2]; 18-24 hours): +++ (+++ is >600%)
,,"Cc1cccc(CC(C)C)c1-c1nc2nc(c1C)OC[C@@H](CC(C)(C)C)N(Cc1ncc(N3CCC(C)(C)C3)cn1)C(=O)c1cccc(c1)S(=O)(=O)N2 (atropisomer, axis not shown) [Compound 243]",EC50 ([2]; 18-24 hours): 1 to 3 µM; HBE Max Activity ([2]; 18-24 hours): +++ (+++ is >600%)
